Patent publication US10654837B2, “Sulphamoylaryl derivatives and use thereof as medicaments for the treatment of liver fibrosis” (Janssen Pharmaceutica NV, priority 2017, dated 2020)

What follows are compounds tested against T1, 5HTR2B (Homo sapiens, UniProt P41595) (assay: 5HTR2B antagonist activity, calcium mobilization assay in human Maverick/293 cells (serotonin as agonist)). Conditions: intracellular calcium, emission 525 nm, read-out: Ca assay IC50.
T1 construct: host or cells: human Maverick/293 cells
Format: cell-based
Description: The 5HTR2B antagonist activity was measured using human Maverick/293 cells in a calcium mobilization assay. The measurement starting with plating human Maverick/293 cells (log phase) onto 96-well black and incubate at 37° C. overnight, Followed by starving cells for 2 h by changing complete medium to DMEM without FBS, removing the medium from the 96-well plate. Loading staining calcium buffer into each well and incubated the plate at 37° C. for 50 min. After removal of staining calcium buffer, diluted antagonist were added into the well, incubate 15 to 30 minutes. Dispense serotonin as the 5HTR2B agonists into each well. Intracellular calcium concentration is recorded for 80 seconds by monitoring an emission at a wavelength of 525 nm with an excitation wavelength of 485 nm. Inhibition efficiency of the cell line was determined following the equation: % Inhibition=100%−(D−B)/(S−B)*100%. (S: The peak value in the presence of agonist serotonin; D: The peak value in the presence of different dilution compound or serotonin; B: The peak value in the presence of calcium HBSS buffer only). […] A dose response curve was fitted using nonlinear regression model with a sigmoidal dose response. The IC50 was automatically produced by GraphPad Prism 5.0.

T1 sequence (P41595 whole entry): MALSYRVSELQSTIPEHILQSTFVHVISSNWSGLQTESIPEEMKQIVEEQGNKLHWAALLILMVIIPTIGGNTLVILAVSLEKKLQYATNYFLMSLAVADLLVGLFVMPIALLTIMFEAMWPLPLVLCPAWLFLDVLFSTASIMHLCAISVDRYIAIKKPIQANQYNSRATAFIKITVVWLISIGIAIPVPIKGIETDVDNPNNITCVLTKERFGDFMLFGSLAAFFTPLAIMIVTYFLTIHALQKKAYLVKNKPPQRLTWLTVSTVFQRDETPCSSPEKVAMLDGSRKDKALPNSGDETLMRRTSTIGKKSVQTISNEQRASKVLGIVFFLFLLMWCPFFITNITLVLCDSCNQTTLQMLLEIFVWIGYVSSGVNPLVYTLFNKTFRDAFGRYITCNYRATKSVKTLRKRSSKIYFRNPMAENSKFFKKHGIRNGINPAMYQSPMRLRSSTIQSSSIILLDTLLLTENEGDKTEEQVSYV

IC50 | Structure (SMILES)
33 nM | COc1ccc(S(=O)(=O)N[C@H]2CCOC2)cc1C(=O)Nc1ncc(F)c(C)n1 [Compound 172, (S)—N-(5-fluoro-4-methylpyrimidin-2-yl)-2-methoxy-5-(N-(tetrahydrofuran-3-yl)sulfamoyl)benzamide]
4.5 nM | COc1ccc(S(=O)(=O)N[C@@H]2CCNC2)cc1C(=O)Nc1ccc(F)c(C(F)F)c1 [Compound 181]
1.1 nM | COc1ccc(S(=O)(=O)N[C@H]2C[C@@H](O)C2)cc1C(=O)Nc1ccc(F)c(C(F)F)c1 [Compound 142b, N-(3-(difluoromethyl)-4-fluorophenyl)-5-(N-((cis)-3-hydroxycyclobutyl)sulfamoyl)-2-methoxybenzamide]
5 nM | COc1ccc(S(=O)(=O)NCC(O)C(F)(F)F)cc1C(=O)Nc1ccc(F)c(C)n1 (single isomer, unassigned) [Compound 23b, (S*)—N-(5-fluoro-6-methylpyridin-2-yl)-2-methoxy-5-(N-(3,3,3-trifluoro-2-hydroxypropyl)sulfamoyl)benzamide]
161 nM | COc1ccc(S(N)(=O)=O)cc1C(=O)Nc1ccc(F)cc1F [Compound 148, N-(2,4-Difluorophenyl)-2-methoxy-5-sulfamoylbenzamide]
3.7 nM | CCCOc1ccc(S(=O)(=O)N[C@H]2CCOC2)cc1C(=O)Nc1ccc(F)c(C)n1 [Compound 199, (S)—N-(5-fluoro-6-methylpyridin-2-yl)-2-propoxy-5-(N-(tetrahydrofuran-3-yl)sulfamoyl) benzamide]
5 nM | COc1ccc(S(=O)(=O)N[C@H]2CCN(C)C2)cc1C(=O)Nc1ccc(F)c(C)n1 [Compound 176, (S)—N-(5-Fluoro-6-methylpyridin-2-yl)-2-methoxy-5-(N-(1-methylpyrrolidin-3-yl)sulfamoyl)benzamide]
1.6 nM | COc1ccc(S(=O)(=O)N[C@H]2CCNC2)cc1C(=O)Nc1ccc(F)c(C)n1 [Compound 175, (S)—N-(5-Fluoro-6-methylpyridin-2-yl)-2-methoxy-5-(N-(pyrrolidin-3-yl)sulfamoyl)benzamide]
1.3 nM | COc1ccc(S(=O)(=O)N[C@H]2CCOC2)cc1C(=O)Nc1ccc(F)cc1C [Compound 131, (S)—N-(4-Fluoro-2-methylphenyl)-2-methoxy-5-(N-(tetrahydrofuran-3-yl)sulfamoyl)benzamide]
2.5 nM | COc1ccc(S(=O)(=O)N[C@H]2C[C@H](O)C2)cc1C(=O)Nc1ccc(F)cc1F [Compound 145a, N-(2,4-difluorophenyl)-5-(N-((trans)-3-hydroxycyclobutyl)sulfamoyl)-2-methoxybenzamide]
0.5 nM | COc1ccc(S(=O)(=O)NC2CCC2)cc1C(=O)Nc1ccc(F)cc1 [Compound 47, 5-(N-Cyclobutylsulfamoyl)-N-(4-fluorophenyl)-2-methoxybenzamide]
0.2 nM | COc1ccc(S(=O)(=O)NC2CCC[C@@H]2O)cc1C(=O)Nc1ccccc1Cl (stereo partly drawn) [Compound 61b, N-(2-Chlorophenyl)-5-(N-((trans)-2-hydroxycyclopentyl)sulfamoyl)-2-methoxy benzamide]
6.7 nM | COc1ccc(S(=O)(=O)N[C@H]2CCOC2)cc1C(=O)Nc1ncc(F)cc1F [Compound 118, (S)—N-(3,5-Difluoropyridin-2-yl)-2-methoxy-5-(N-(tetrahydrofuran-3-yl)sulfamoyl)benzamide]
1 nM | COc1ccc(S(=O)(=O)N[C@H]2C[C@@H](O)C2)cc1C(=O)Nc1ccc(F)cc1F [Compound 145b, N-(2,4-difluorophenyl)-5-(N-((cis)-3-hydroxycyclobutyl)sulfamoyl)-2-methoxybenzamide]
1.8 nM | COc1ccc(S(=O)(=O)N[C@@H](C)C(N)=O)cc1C(=O)Nc1ccc(F)c(C)c1 [Compound 12a, (S)-5-(N-(1-Amino-1-oxopropan-2-yl)sulfamoyl)-N-(4-fluoro-3-methylphenyl)-2-methoxybenzamide]

Structure (SMILES) | IC50
COc1ccc(S(=O)(=O)N[C@H]2CCOC2)cc1C(=O)Nc1ccc(C#N)c(Cl)c1 [Compound 89, (S)—N-(3-Chloro-4-cyanophenyl)-2-methoxy-5-(N-(tetrahydrofuran-3-yl)sulfamoyl)benzamide] | 1950 nM
